What follows are molecules tested against T1, D2R (D2 dopamine receptor; HA-hDRD2-SmBiT) (Homo sapiens, UniProt P14416) (assay: competition with [3H]-raclopride, membranes). Details: not given.
T1 sequence (P14416 whole entry): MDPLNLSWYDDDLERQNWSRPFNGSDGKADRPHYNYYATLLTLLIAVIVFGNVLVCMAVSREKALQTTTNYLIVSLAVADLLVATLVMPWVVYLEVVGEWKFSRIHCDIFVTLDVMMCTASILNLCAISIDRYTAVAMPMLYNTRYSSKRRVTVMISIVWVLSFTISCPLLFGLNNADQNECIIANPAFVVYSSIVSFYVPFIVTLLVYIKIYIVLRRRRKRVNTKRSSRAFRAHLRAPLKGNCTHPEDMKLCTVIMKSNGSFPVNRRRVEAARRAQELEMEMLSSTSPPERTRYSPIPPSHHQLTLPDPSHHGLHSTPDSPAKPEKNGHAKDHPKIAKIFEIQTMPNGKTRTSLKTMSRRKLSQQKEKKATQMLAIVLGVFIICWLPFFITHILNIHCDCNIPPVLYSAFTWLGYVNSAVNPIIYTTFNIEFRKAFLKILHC

| SMILES | Ki |
| --- | --- |
| CNC[C@H](O)c1ccc(O)c(O)c1 [adrenaline] | 7.08 µM |
| NCC(O)c1ccccc1 (stereo not drawn) [hydroxyphenethylamine] | 195 µM |
| CNCCc1ccc(O)c(O)c1 [methyldopamine] | 0.0603 µM |
| CNCCc1ccccc1 [n-methyl-phenetylamine] | 17 µM |
| NCC(O)c1cccc(O)c1 (stereo not drawn) [norphenylephrine] | 17 µM |
| NC[C@H](O)c1ccc(O)cc1 [octopamine] | 347 ± 60.1 µM |
| CNC[C@H](O)c1cccc(O)c1 [phenhyleprine] | 15.1 µM |
| CNCC(O)c1ccc(O)cc1 (stereo not drawn) [synephrine] | 87.1 µM |

Same assay, conditions: pH 7.4, RT, 10 mM MgCl2, orthosteric

| SMILES | Ki |
| --- | --- |
| NCCc1ccccc1 [phenetylamine] | 4.73 ± 0.52 pKi |

Molecular target: T1, D2R (D2 dopamine receptor; HA-hDRD2-SmBiT)
Assay: competition with [3H]-raclopride, membranes
Details: not given
Remark: another data set of the same source

| SMILES | Ki |
| --- | --- |
| NCCc1cccc(O)c1 [m-tyramine] | 1.86 µM |
| NC[C@H](O)c1ccc(O)c(O)c1 [noradrenaline] | 9.55 µM |
| NCCc1ccc(O)cc1 [p-tyramine] | 77.6 µM |

— paper doi:10.1101/2025.03.30.646192v1 (biorxiv, 2025)
